In the supplement of paper PMC10331698:
± gives the standard deviation of the averaged measurements.

Assays:
Test in all cases: level (log10 ratio to DMSO vehicle control); higher = higher biomarker level / cell amount than vehicle control
Details in all cases: in DMSO
[1] = compound: COC(=O)CCC(F)(F)C(F)(F)C(F)(F)C(F)(F)F [Methyl 2H,2H,3H,3H-perfluoroheptanoate]
Description: (§1)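 BioMAP Diversity Plus panel of 12 human primary cell co-culture systems (3C, 4H, LPS, SAg, BT, BF4T, BE3C, CASM3C, HDF3CGF, KF3CT, MyoF, Mphg). Compounds were added 1 h before stimulation and left for 24 h (MyoF 48 h; BT 72 h for soluble read-outs or 6 d for IgG). Biomarkers were read by ELISA, cytotoxicity by SRB, PBMC viability and proliferation by Alamar Blue. Each well value was divided by the mean of 8 DMSO control wells on the same plate and log10 transformed; duplicate blinded samples were tested at 4 concentrations.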

[2] = compound: FC(F)C(F)(F)COCC1CO1 [((2,2,3,3-Tetrafluoropropoxy)methyl)oxirane]
Description: as §1

[3] = compound: C=CC(=O)OCC(F)(F)C(F)(F)C(F)(F)C(F)(F)C(F)(F)C(F)(F)C(F)(F)F [1H,1H-Perfluorooctyl acrylate]
Description: as §1

[4] = compound: O=C(O)C(F)(F)C(F)(F)C(F)(F)C(F)(F)C(F)(F)C(F)(F)C(F)(F)C(F)F [9-H-Perfluorononanoic acid]
Description: as §1

[5] = compound: FC(F)(F)C(F)(C(F)(F)F)C(F)(F)C(F)(F)CC1CO1 [3-(Perfluoro-3-methylbutyl)-1,2-propenoxide]
Description: as §1

Perfluoro-1-iodohexane = compound: FC(F)(F)C(F)(F)C(F)(F)C(F)(F)C(F)(F)C(F)(F)I [Perfluoro-1-iodohexane]
Description: as §1

Perfluorodecanoic acid = compound: O=C(O)C(F)(F)C(F)(F)C(F)(F)C(F)(F)C(F)(F)C(F)(F)C(F)(F)C(F)(F)C(F)(F)F [Perfluorodecanoic acid]
Description: as §1

Test System | level (log10) ([1]; 6700 nM) | level (log10) ([1]; 20000 nM) | level (log10) ([1]; 60000 nM) | level (log10) ([2]; 6700 nM) | level (log10) ([2]; 20000 nM) | level (log10) ([2]; 60000 nM) | level (log10) ([3]; 6700 nM) | level (log10) ([3]; 20000 nM) | level (log10) ([3]; 60000 nM) | level (log10) ([4]; 6700 nM) | level (log10) ([4]; 20000 nM) | level (log10) ([4]; 60000 nM) | level (log10) ([5]; 6700 nM) | level (log10) ([5]; 20000 nM) | level (log10) (Perfluoro-1-iodohexane; 6700 nM) | level (log10) (Perfluoro-1-iodohexane; 20000 nM) | level (log10) (Perfluoro-1-iodohexane; 60000 nM) | level (log10) (Perfluorodecanoic acid; 6700 nM) | level (log10) (Perfluorodecanoic acid; 20000 nM)
BF4T:CXCL8/IL-8 | 0.018 ± 0.018 | 0.0065 ± 0.0078 | 0.013 ± 0.037 | 0.0165 ± 0.013 | 0.003 ± 0.0042 | 0.0255 ± 0.021 | 0.0275 ± 0.0092 | 0.01 ± 0.0057 | 0.0465 ± 0.0092 | 0.0365 ± 0.021 | 0.038 ± 0.023 | 0.0565 ± 0.016 | 0.0045 ± 0.015 | 0.014 ± 0.03 | 0.0175 ± 0.021 | -0.009 ± 0.058 | 0.016 ± 0.058 | 0.0395 ± 0.012 | -0.293 ± 0.076
BF4T:IL-1alpha | -0.0085 ± 0.00071 | -0.0185 ± 0.018 | 0 ± 0.021 | -0.0025 ± 0.00071 | -0.009 ± 0.0099 | 0.021 ± 0.03 | -0.0075 ± 0.00071 | 0.0045 ± 0.0021 | -0.0125 ± 0.013 | 0.0005 ± 0.00071 | -0.019 ± 0.0099 | 0.0055 ± 0.044 | -0.016 ± 0.024 | 0.0185 ± 0.013 | -0.0075 ± 0.005 | -0.0065 ± 0.012 | -0.004 ± 0.0057 | -0.0335 ± 0.0035 | -0.247 ± 0.28
BF4T:Keratin 8/18 | 0.007 ± 0.033 | 0.0285 ± 0.033 | 0.0225 ± 0.011 | 0.0005 ± 0.005 | -0.008 ± 0.014 | -0.0025 ± 0.042 | 0.02 ± 0.0014 | 0.0005 ± 0.035 | -0.0035 ± 0.053 | -0.007 ± 0.052 | 0.0065 ± 0.044 | 0.0005 ± 0.0035 | 0.01 ± 0.023 | -0.002 ± 0.035 | -0.0075 ± 0.067 | -0.023 ± 0.016 | -0.015 ± 0.088 | 0.011 ± 0.0028 | -0.335 ± 0.042
BF4T:MMP-1 | 0.0015 ± 0.013 | -0.007 ± 0.0028 | 0.014 ± 0.021 | 0.016 ± 0.0085 | 0.007 ± 0.02 | 0.03 ± 0.021 | 0.009 ± 0.021 | 0.0065 ± 0.0092 | 0.006 ± 0.0042 | 0.005 ± 0.021 | -0.0075 ± 0.039 | 0.0925 ± 0.00071 | -0.0115 ± 0.047 | 0.02 ± 0.067 | 0.0045 ± 0.005 | 0.0035 ± 0.0035 | 0.009 ± 0.011 | -0.0015 ± 0.0035 | -0.201 ± 0.011
BF4T:MMP-3 | -0.0135 ± 0.015 | -0.021 ± 0.03 | -0.0185 ± 0.0035 | 0.0015 ± 0.00071 | -0.0115 ± 0.026 | 0.0205 ± 0.059 | -0.004 ± 0.0014 | 0.0205 ± 0.019 | 0.036 ± 0.0071 | -0.0115 ± 0.03 | -0.0025 ± 0.00071 | 0.075 ± 0.0071 | 0.0005 ± 0.018 | -0.011 ± 0.0028 | 0.004 ± 0.0057 | 0.017 | 0.0635 ± 0.035 | 0.0215 ± 0.023 | -0.14 ± 0.075
BF4T:MMP-9 | 0.007 ± 0.034 | 0.0165 ± 0.047 | 0.012 ± 0.055 | 0.0055 ± 0.005 | -0.01 ± 0.0042 | 0.0065 ± 0.013 | 0.0065 ± 0.028 | 0.0035 ± 0.016 | 0.015 ± 0.033 | -0.073 ± 0.045 | -0.039 ± 0.0071 | -0.004 ± 0.0014 | 0.0085 ± 0.005 | -0.0125 ± 0.026 | -0.0005 ± 0.015 | -0.011 ± 0.0042 | -0.021 ± 0.034 | -0.025 ± 0.0057 | -0.282 ± 0.023
BF4T:PAI-I | 0.007 ± 0.025 | 0.0055 ± 0.012 | -0.007 ± 0.0028 | -0.0075 ± 0.00071 | -0.011 ± 0.0028 | 0.0105 ± 0.026 | 0.008 ± 0.0014 | 0 ± 0.0014 | 0.0025 ± 0.013 | -0.099 ± 0.0028 | -0.0915 ± 0.0021 | -0.114 ± 0.0099 | -0.0045 ± 0.013 | 0.0005 ± 0.016 | -0.0095 ± 0.0035 | -0.02 ± 0.0042 | -0.006 ± 0.018 | 0.0185 ± 0.00071 | -0.119 ± 0.043
